Patent EP4786487A1, “PEPTIDE” (Peptidream Inc, priority 2023, dated 2025)
Where two headings read alike, the source gives them in different places. Starred links: 1 amine or outer side, 2 acyl side, 3 side chain; linkers in the order of their positions; H or OH if unused. Positions of bridges follow the written chain, without caps; N, C: chain ends. Non-standard residues stand in square brackets, D forms with d. Residues, ends and D or L forms follow the SMILES beside them. X4 = CN(C)C(=O)Cn1cc(-c2ccc(C[C@H](N[*:1])C(=O)[*:2])cc2)cn1; X3 = O=C(O)COc1ccccc1-c1ccc(C[C@H](N[*:1])C(=O)[*:2])cc1; Phe(3-OCH2COOH) = N[C@@H](Cc1cccc(OCC(=O)O)c1)C(=O)O; X11 = O=C([C@H](Cc1ccc(-c2ccccc2Cl)cc1)N[*:1])[*:2]; Trp(6-OH) = N[C@@H](Cc1c[nH]c2cc(O)ccc12)C(=O)O; Phe(4-COOH) = N[C@@H](Cc1ccc(C(=O)O)cc1)C(=O)O; Trp(7-aza) = N[C@@H](Cc1c[nH]c2ncccc12)C(=O)O; Gly(N(CH2)3COOH) = O=C(O)CCCNCC(=O)O; X1 = CCCCCCC[C@H](N[*:1])C(=O)[*:2]; NMeF = CN[C@@H](Cc1ccccc1)C(=O)O; NMeE = CN[C@@H](CCC(=O)O)C(=O)O; NMeA = CN[C@@H](C)C(=O)O; Dap = NC[C@H](N)C(=O)O; Sar = CNCC(=O)O

Tests used:
Myostatin = target: T1, Myostatin (Homo sapiens, UniProt O14793); assay: HepG2 reporter gene assay, Evaluation Procedure (2): 2-concentrations assay, myostatin inhibition; format: cell-based
T1 construct: active myostatin (also called mature myostatin) is a homodimer consisting of two C-terminal growth factor domains; purchased R&D systems 788-G8/CF
T1 sequence (O14793 267-375): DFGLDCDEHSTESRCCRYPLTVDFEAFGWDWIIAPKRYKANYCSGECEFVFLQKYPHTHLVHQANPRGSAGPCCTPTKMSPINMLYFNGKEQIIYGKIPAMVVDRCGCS
Description: (§1) The pGL3(CAGA)12-luc plasmid, namely a pGL3 vector (E1751, Promega) having a luciferase gene inserted downstream of a promoter sequence with 12 CAGA repeats attached, was transfected into HepG2 cell line (HB-8065, ATCC). The culture of HepG2 cell line (HB-8065, ATCC) was performed as in the Evaluation Procedure (1).
(§2) Myostatin (788-G8/CF, R&D systems) or GDF-11 (1958-GD-G8/CF, R&D systems) was added at a final concentration of 10 ng/mL. […] At this time, blank wells, in which neither myostatin, GDF-11, nor each peptide was added, were also prepared and incubated in a CO2 incubator (37°C, 5% CO2) for 20 to 24 hours.
(§3) The medium containing the cells was removed, and a mixture containing PBS (14190144, Thermo) and a chromogenic substrate One-Glo Luciferase Assay System (E6120, Promega) at a ratio of 1:1 was added to each well at 100 µL/well. This was stirred with a plate shaker for 5 min and transferred to a 384-well plate (3570, Corning) at a volume of 20 µL/well.
(§4) The plate was centrifuged at 1,000 × g for 1 min and the luminescence signal (700 nm luminescence) was measured using a plate reader (Envision 2104, PerkinElmer). Based on the measurement results, the inhibition rate at each peptide concentration was calculated. […]

GDF-11 = target: T2, GDF-11 (Homo sapiens, UniProt O95390); assay: HepG2 reporter gene assay, Evaluation Procedure (2): 2-concentrations assay, GDF-11 inhibition; format: cell-based; conditions: for inhibition at 0.03 µM: HepG2, peptide 30nM, read-out: GDF11 Inhibition 30nM; for inhibition at 0.03 µM / inhibition at 0.1 µM: GDF-11 10 ng/mL; for inhibition at 0.1 µM: HepG2, peptide 100nM, read-out: GDF11 Inhibition 100nM
T2 construct: purchased R&D systems 1958-GD-G8/CF
T2 sequence (O95390 299-407): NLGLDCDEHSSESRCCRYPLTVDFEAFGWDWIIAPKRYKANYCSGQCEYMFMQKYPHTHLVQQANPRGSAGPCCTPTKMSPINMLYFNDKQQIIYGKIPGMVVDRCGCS
Description: as §1, §2, §3, §4

[1] = HepG2, read-out: inhibition rate (myostatin inhibition assay)
[2] = HepG2, read-out: inhibition rate (GDF-11 inhibition assay), Table 7-3/7-4, GDF-11 10 ng/mL, peptide at the higher of the 2 concentrations
[3] = HepG2, read-out: inhibition rate (GDF-11 inhibition assay), Table 7-3/7-4, GDF-11 10 ng/mL, peptide at the lower of the 2 concentrations
[4] = peptide 30nM, Myostatin 10 ng/mL, HepG2, read-out: Myostatin Inhibition 30nM
[5] = peptide 100nM, Myostatin 10 ng/mL, HepG2, read-out: Myostatin Inhibition 100nM

| Compound | inhibition at 0.03 µM (Myostatin; [1]) [%] | inhibition at 0.1 µM (Myostatin; [1]) [%] | inhibition (GDF-11; [2]) [%] | inhibition (GDF-11; [3]) [%] | inhibition at 0.03 µM (Myostatin; [4]) [%] | inhibition at 0.1 µM (Myostatin; [5]) [%] | inhibition at 0.03 µM (GDF-11) [%] | inhibition at 0.1 µM (GDF-11) [%] | other results |
| --- | --- | --- | --- | --- | --- | --- | --- | --- | --- |
| CCCCCCC[C@@H]1NC(=O)[C@H](Cc2ccccc2)N(C)C(=O)[C@H](CCCNC(=N)N)NC(=O)[C@H](Cc2ccc(C(=O)O)cc2)NC(=O)[C@H](Cc2cccc(OCC(=O)O)c2)NC(=O)[C@H](C)N(C)C(=O)[C@H]([C@@H](C)CC)NC(=O)[C@H](Cc2ccccc2)N(C)C(=O)[C@H](Cc2ccc(O)cc2)NC(=O)[C@H](Cc2c[nH]c3cc(O)ccc23)NC(=O)[C@H](C)NC(=O)CN(CCCC(=O)O)C(=O)CSC[C@H](C(=O)O)NC(=O)[C@H](Cc2ccccc2)N(C)C(=O)[C@H](C)N(C)C1=O [Myostatin_99_v318] ({CH2CO}-[Gly(N(CH2)3COOH)]A[Trp(6-OH)]Y[NMeF]I[NMeA][Phe(3-OCH2COOH)][Phe(4-COOH)]R[NMeF][X1][NMeA][NMeF][dC]-OH; thioether N-15) |  |  |  |  |  |  |  |  | inhibition at 0.1 µM (Myostatin; Table 7-3/7-4, myostatin 10 ng/mL, peptide at the higher of the 2 concentrations, HepG2, read-out: inhibition rate (myostatin inhibition assay)): 100%; inhibition at 0.03 µM (Myostatin; Table 7-3/7-4, myostatin 10 ng/mL, peptide at the lower of the 2 concentrations, HepG2, read-out: inhibition rate (myostatin inhibition assay)): 100%; inhibition (GDF-11; HepG2, first GDF-11 column of Table 7-3/7-4, GDF-11 10 ng/mL, peptide at the lower of the 2 concentrations, read-out: inhibition rate (GDF-11 inhibition assay)): 0%; inhibition (GDF-11; HepG2, second GDF-11 column of Table 7-3/7-4, GDF-11 10 ng/mL, peptide at the higher of the 2 concentrations, read-out: inhibition rate (GDF-11 inhibition assay)): 19% |
| CCCCCCC[C@@H]1NC(=O)[C@H](Cc2ccccc2)N(C)C(=O)[C@H](CCCNC(=N)N)NC(=O)[C@H](Cc2ccc(C(=O)O)cc2)NC(=O)[C@H](Cc2ccc(-c3ccccc3OCC(=O)O)cc2)NC(=O)[C@H](C)N(C)C(=O)[C@H]([C@@H](C)CC)NC(=O)[C@H](Cc2ccccc2)N(C)C(=O)[C@H](Cc2ccc(O)cc2)NC(=O)[C@H](Cc2c[nH]c3cc(O)ccc23)NC(=O)[C@H](C)NC(=O)CN(CCCC(=O)O)C(=O)CSC[C@H](C(=O)O)NC(=O)[C@H](Cc2ccccc2)N(C)C(=O)[C@H](C)N(C)C1=O [Myostatin_99_v373] ({CH2CO}-[Gly(N(CH2)3COOH)]A[Trp(6-OH)]Y[NMeF]I[NMeA][X3][Phe(4-COOH)]R[NMeF][X1][NMeA][NMeF][dC]-OH; thioether N-15) | 100 | 100 | 47 | 0 |  |  |  |  |  |
| CC[C@H](C)[C@@H]1NC(=O)[C@H](Cc2ccccc2)N(C)C(=O)[C@H](Cc2ccc(O)cc2)NC(=O)[C@H](Cc2c[nH]c3ncccc23)NC(=O)[C@H](CCC(=O)O)NC(=O)[C@H](C)NC(=O)CSC[C@H](C(=O)N[C@H](CO)C(=O)N[C@H](CO)C(=O)N[C@H](CO)C(=O)N[C@H](CCCCN)C(=O)O)NC(=O)[C@H](Cc2ccccc2)N(C)C(=O)[C@H](C)N(C)C(=O)[C@H](CC(C)C)NC(=O)[C@H](Cc2ccccc2)N(C)C(=O)[C@H](CCCNC(=N)N)NC(=O)[C@H](Cc2ccc(C(=O)O)cc2)NC(=O)[C@H](Cc2ccccc2)NC(=O)CN(C)C1=O [Myostatin_99_v39] ({CH2CO}-AE[Trp(7-aza)]Y[NMeF]I[Sar]F[Phe(4-COOH)]R[NMeF]L[NMeA][NMeF][dC][dS][dS][dS][dK]-OH; thioether N-15) |  |  |  |  | 39 | 79 | 0 | 11 |  |
| CC[C@H](C)[C@@H]1NC(=O)[C@H](Cc2ccccc2)N(C)C(=O)[C@H](Cc2ccc(O)cc2)NC(=O)[C@H](Cc2c[nH]c3ccccc23)NC(=O)[C@H](CCCNC(=N)N)NC(=O)[C@H](CN)NC(=O)CSC[C@@H](C(N)=O)NC(=O)[C@H](Cc2ccccc2)N(C)C(=O)[C@H](C)N(C)C(=O)[C@H](CC(C)C)NC(=O)[C@H](Cc2ccccc2)N(C)C(=O)[C@H](CCCNC(=N)N)NC(=O)[C@H](Cc2ccc(O)cc2)NC(=O)[C@H](Cc2ccc(O)cc2)NC(=O)CN(C)C1=O [Myostatin_000099_01Dap] ({CH2CO}-[Dap]RWY[NMeF]I[Sar]YYR[NMeF]L[NMeA][NMeF]C-NH2; thioether N-15) |  |  |  |  | 18 | 62 | 0 | 0 |  |
| CCCCCCC[C@@H]1NC(=O)[C@H](Cc2ccccc2)N(C)C(=O)[C@H](CCCNC(=N)N)NC(=O)[C@H](Cc2ccc(C(=O)O)cc2)NC(=O)[C@H](Cc2ccc(-c3ccccc3Cl)cc2)NC(=O)[C@H](C)N(C)C(=O)[C@H]([C@@H](C)CC)NC(=O)[C@H](Cc2ccccc2)N(C)C(=O)[C@H](Cc2ccc(O)cc2)NC(=O)[C@H](Cc2ccc(-c3cnn(CC(=O)N(C)C)c3)cc2)NC(=O)[C@H](C)NC(=O)CN(CCCC(=O)O)C(=O)CSC[C@H](C(=O)O)NC(=O)[C@H](Cc2ccccc2)N(C)C(=O)[C@H](CCC(=O)O)N(C)C1=O [Myostatin_99_v321] ({CH2CO}-[Gly(N(CH2)3COOH)]A[X4]Y[NMeF]I[NMeA][X11][Phe(4-COOH)]R[NMeF][X1][NMeE][NMeF][dC]-OH; thioether N-15) | 58 | 91 | 0 | 0 |  |  |  |  |  |
